# Source: patent publication US20240325386A1, “THERAPEUTIC AGENT FOR COVID-19” (FUJIFILM Toyama Chemical Co., Ltd., priority 2021, published 2024)
# Read-outs that look alike come from different tables or passages of the source.
# What was measured:
# SARS-CoV-2 [1] = type: in vivo
# SARS-CoV-2 [2] = settings: Japanese phase III clinical study, as reported in Non-patent Literature 4 (news release); cited from earlier work
# [3] = mITT, N = 107, improvement in body temperature, SpO2, chest imaging and SARS-CoV-2 negative conversion
smiles,measurement,setting,value
"NC(=O)c1nc(F)cnc1O [Compound A, 6-fluoro-3-hydroxy-2-pyrazinecarboxamide]",median time to improvement shorter than in the control group,"SARS-CoV-2 [1]; mITT, Compound A group 107 patients vs control group 49 patients",approximately 3 days
same,Patients with improvement,"SARS-CoV-2 [1]; mITT, Compound A group N = 107, 1,800 mg BID Day 1 + 800 mg BID up to 13 days, oral, plus standard of care",81
same,Median time to improvement in 25% of patients,SARS-CoV-2 [1]; [3],7.8 days
same,Median time to improvement in 50% of patients,SARS-CoV-2 [1]; [3],11.9 days
same,Median time to improvement in 75% of patients,SARS-CoV-2 [1]; [3],15.6 days
same,median time to improvement shorter than in the control group,SARS-CoV-2 [1]; subgroup of patients testing negative for both IgG antibody and IgA antibody,approximately 5 days
same,"time to improvement of body temperature, SpO2, chest image findings and SARS-CoV-2 negative conversion (primary endpoint) shorter than in the control group",SARS-CoV-2 [2],approximately 3 days
